Here are results for eight compounds from patent US20250195513A1, “DEGRADATION OF IRAK4 BY CONJUGATION OF IRAK4 INHIBITORS WITH E3 LIGASE LIGAND AND METHODS OF USE” (BeiGene, Ltd., priority 2022, published 2025).

What all share (type): cell-based
Assay [1] relates to TNF-α production in THP-1 cells. The assay can be described thus: TNF-α Production Assay in THP-1 Cells (LPS stimulated). The following applies: Homo sapiens, THP-1, 24 h; for Emax: maximum inhibition, read-out: TNF-α (THP-1) 24 h IMax. In outline:
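Cells (0.2 million/well) pretreated with compounds for 24 h, then stimulated with LPS at 1 μg/mL final for 24 h. TNF-α in culture supernatant quantified by TR-FRET immunoassay.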

The test system of assay [2] is IL-6 production in human PBMC. Briefly: IL-6 Production Assay in Human PBMC (LPS stimulated). Particulars: Homo sapiens, 5 h; for Emax: maximum inhibition, read-out: IL-6 (PBMC) 5 h IMax. The method, then: Frozen human PBMC (AllCells) were thawed in RPMI 1640 medium (Thermo Scientific) supplemented with 10% heat-inactivated FBS (Thermo Scientific) and recovered at 37° C. overnight. The next day, PBMC were seeded into 96-well plates at the density of 0.2 million cells per well and treated with compounds for 24 h. Then lipopolysaccharide was added at the final concentration of 10 ng/mL for 5 h. Culture supernatant was collected for subsequent measurement of IL-6 concentration by a TR-FRET-based method (Degorce, François, et al. Current chemical genomics. 2009, 3: 22) as described by the manufacturer manual (Cisbio). FRET signals were measured with PHERAstar FSX reader (BMG Labtech).

The target in assay [3] is T1, IRAK4 (Homo sapiens, UniProt Q9NWZ3).
T1 construct: endogenous in cells; host or cells: Karpas299
T1 sequence (Q9NWZ3 1-460): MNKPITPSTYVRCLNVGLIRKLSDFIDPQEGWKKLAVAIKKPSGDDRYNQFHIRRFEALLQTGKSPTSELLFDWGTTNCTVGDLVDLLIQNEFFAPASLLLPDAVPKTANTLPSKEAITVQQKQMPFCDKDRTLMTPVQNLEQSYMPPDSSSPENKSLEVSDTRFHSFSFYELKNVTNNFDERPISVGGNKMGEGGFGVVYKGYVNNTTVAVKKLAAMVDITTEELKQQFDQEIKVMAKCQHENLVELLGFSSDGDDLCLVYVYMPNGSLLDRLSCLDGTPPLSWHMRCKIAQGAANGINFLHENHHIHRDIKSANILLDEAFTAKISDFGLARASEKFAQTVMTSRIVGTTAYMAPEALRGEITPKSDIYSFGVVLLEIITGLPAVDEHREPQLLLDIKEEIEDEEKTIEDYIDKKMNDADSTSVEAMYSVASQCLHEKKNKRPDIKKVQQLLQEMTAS
Briefly: IRAK4 Degradation Assay (Karpas299, HTRF/TR-FRET). Particulars: Karpas-299 cells; for Dmax: maximum percentage of degradation. The gist of the method:
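Karpas299 cells at 0.2 million per well were exposed to serially diluted compounds for 24 h or 5 h, then lysed. IRAK4 remaining in lysates was quantified by HTRF (665/620 nm) after overnight antibody incubation at room temperature. Percent degradation was fitted to a four-parameter curve to give IC50 (DC50).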

In assay [4] the target is T1, IRAK4. The assay can be described thus: IRAK4 Degradation Assay with Human Serum (Karpas299, HTRF/TR-FRET). Particulars: Karpas-299 in human serum, 24 hrs treatment; for DC50: read-out: IRAK4 degradtion with human serum assay DC50; for Dmax: read-out: IRAK4 degradtion with human serum assay Dmax (%). In outline: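 Karpas299 cells in human AB serum (0.2 million/well) treated with serial compound dilutions for 24 h. After lysis, IRAK4 quantified by HTRF (overnight antibody incubation at room temperature, 665/620 nm read). Degradation percentage fitted to four-parameter curve to give DC50.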

Setting [5] is: 5 h treatment, read-out: IRAK4 in Karpas-299 (5 h) Dmax (%).
The mark [6] stands for this setting: 5 h treatment, read-out: IRAK4 in Karpas-299 (5 h) DC50.
Setting [7] is: 24 h treatment, read-out: IRAK4 in Karpas-299 (24 h) Dmax (%).
Where [8] appears, read: 24 h treatment, read-out: IRAK4 in Karpas-299 (24 h) DC50.

For the compound `CC(C)(O)c1cc2nn(C34CC(N5CCN(CC6CN(c7cc(F)c([C@H]8CCC(=O)NC8=O)c(F)c7)C6)CC5)(C3)C4)cc2cc1NC(=O)c1ccc2cc(C#N)cnn12` [Example 332, (R)-3-cyano-N-(2-(3-(4-((1-(4-(2,6-dioxopiperidin-3-yl)-3,5-difluorophenyl)azetidin-3-yl)methyl)piperazin-1-yl)bicyclo[1.1.1]pentan-1-yl)-6-(2-hydroxypropan-2-yl)-2H-indazol-5-yl)pyrrolo[1,2-b]pyridazine-7-carboxamide], the half-inhibitory concentration (IC50) amounted to 7.6 nM in assay [1] and 1.4 nM in assay [2]. Also, the Emax in assay [1] came out at 93%; in assay [2], 70%. Further, the figures for the Dmax at IRAK4 [3] (setting [5]), at IRAK4 [3] (setting [7]) and at IRAK4 [4] were 97%, 97% and 101%, respectively. For the same compound, the results for the DC50 on IRAK4 [3] (setting [6]), at IRAK4 [3] (setting [8]) and on IRAK4 [4] were 1.5 nM, 0.6 nM and 10 nM, respectively.

On to `C[C@@H]1CN(CCc2cc(F)c([C@H]3CCC(=O)NC3=O)c(F)c2)CCN1[C@H]1CC[C@H](n2cc3cc(NC(=O)c4ccc5cc(C#N)cnn45)c(C(C)(C)O)cc3n2)CC1` [Example 299, 3-cyano-N-(2-((1R,4r)-4-((R)-4-(4-((R)-2,6-dioxopiperidin-3-yl)-3,5-difluorophenethyl)-2-methylpiperazin-1-yl)cyclohexyl)-6-(2-hydroxypropan-2-yl)-2H-indazol-5-yl)pyrrolo[1,2-b]pyridazine-7-carboxamide], for which the values for the IC50 in assay [1] and in assay [2] were 43 nM and 4 nM, respectively. In addition, the Emax in assay [1] is 94%; in assay [2], 74%. For the same compound, the Dmax stood at 98% on IRAK4 [3] (setting [7]) and 99% on IRAK4 [4]. The DC50 on IRAK4 [3] (setting [8]) was found to be 0.8 nM; on IRAK4 [4] it was 4.8 nM.

Consider `CC(C)(O)c1cc2nn([C@H]3CC[C@H](N4CCN(CCc5cc(F)c([C@H]6CCC(=O)NC6=O)c(F)c5)CC4)CC3)cc2cc1NC(=O)c1ccc2cc(C#N)cnn12` [Example 182, 3-cyano-N-(2-((1R,4r)-4-(4-(4-((R)-2,6-dioxopiperidin-3-yl)-3,5-difluorophenethyl)piperazin-1-yl)cyclohexyl)-6-(2-hydroxypropan-2-yl)-2H-indazol-5-yl)pyrrolo[1,2-b]pyridazine-7-carboxamide], for which the IC50 was 33 nM in assay [1] and 2.5 nM in assay [2]. Further, the Emax in assay [1] is 71%; in assay [2], 64%. Further, the Dmax at IRAK4 [3] (setting [5]) stood at 96%; at IRAK4 [3] (setting [7]), 98%; on IRAK4 [4], 99%. The results for the DC50 on IRAK4 [3] (setting [6]), at IRAK4 [3] (setting [8]) and at IRAK4 [4] were 2.3 nM, 0.3 nM and 3.7 nM, respectively.

Take `COC[C@@H]1CN(CC2CN(c3cc(F)c([C@H]4CCC(=O)NC4=O)c(F)c3)C2)CCN1[C@H]1CC[C@H](n2cc3cc(NC(=O)c4ccc5cc(C#N)cnn45)c(C(C)(C)O)cc3n2)CC1` [Example 326, 3-cyano-N-(2-((1S,4r)-4-((S)-4-((1-(4-((R)-2,6-dioxopiperidin-3-yl)-3,5-difluorophenyl)azetidin-3-yl)methyl)-2-(methoxymethyl)piperazin-1-yl)cyclohexyl)-6-(2-hydroxypropan-2-yl)-2H-indazol-5-yl)pyrrolo[1,2-b]pyridazine-7-carboxamide]: the IC50 in assay [1] amounted to 13 nM; in assay [2], 1.9 nM. The Emax in assay [1] worked out at 99%; in assay [2], 65%. For the same compound, the Dmax is 97% at IRAK4 [3] (setting [5]), 100% at IRAK4 [3] (setting [7]) and 95% on IRAK4 [4]. For the same compound, the DC50 stood at 1.9 nM on IRAK4 [3] (setting [6]), 0.7 nM on IRAK4 [3] (setting [8]) and 2.9 nM on IRAK4 [4].

Regarding `Cc1nc(C2CCC(=O)NC2=O)ccc1N1CCC(N2CCN([C@H]3CC[C@H](n4cc5cc(NC(=O)c6ccc7cc(C#N)cnn67)c(C(C)(C)O)cc5n4)CC3)CC2)CC1` (stereo partly drawn) [Example 398, 3-cyano-N-(2-((1r,4r)-4-(4-(1-(6-(2,6-dioxopiperidin-3-yl)-2-methylpyridin-3-yl)piperidin-4-yl)piperazin-1-yl)cyclohexyl)-6-(2-hydroxypropan-2-yl)-2H-indazol-5-yl)pyrrolo[1,2-b]pyridazine-7-carboxamide], the IC50 in assay [1] is 21 nM; in assay [2], 2.4 nM. The Emax was determined as 97% in assay [1] and 70% in assay [2]. The values for the Dmax on IRAK4 [3] (setting [5]), on IRAK4 [3] (setting [7]) and on IRAK4 [4] were 97%, 97% and 98%, respectively. The DC50 at IRAK4 [3] (setting [6]) came out at 1.9 nM; on IRAK4 [3] (setting [8]) it was 2.3 nM; at IRAK4 [4] it was 2.6 nM.

Regarding `COC[C@H]1CN([C@H]2CC[C@H](n3cc4cc(NC(=O)c5ccc6cc(C#N)cnn56)c(C(C)(C)O)cc4n3)CC2)CCN1CCc1cc(F)c([C@H]2CCC(=O)NC2=O)c(F)c1` [Example 314, 3-cyano-N-(2-((1R,4r)-4-((R)-4-(4-((R)-2,6-dioxopiperidin-3-yl)-3,5-difluorophenethyl)-3-(methoxymethyl)piperazin-1-yl)cyclohexyl)-6-(2-hydroxypropan-2-yl)-2H-indazol-5-yl)pyrrolo[1,2-b]pyridazine-7-carboxamide], the concentration for half-maximal inhibition (IC50) in assay [1] came to 26 nM; in assay [2], 2.3 nM. The Emax in assay [1] turned out to be 88%; in assay [2], 51%. Also, the Dmax on IRAK4 [3] (setting [7]) and at IRAK4 [4] was 98% throughout. Besides, the half-maximal degradation concentration (DC50) on IRAK4 [3] (setting [8]) came to 0.6 nM; at IRAK4 [4], 3.4 nM.

On to `COc1cc2nn([C@H]3CC[C@H](CN4CCN(C(=O)[C@H]5CCN(c6ccc(N7CCC(=O)NC7=O)cc6)C5)CC4)CC3)cc2cc1NC(=O)c1cccn(C2CC2)c1=O` [Example 34, 1-cyclopropyl-N-(2-((1S,4r)-4-((4-((S)-1-(4-(2,4-dioxotetrahydropyrimidin-1(2H)-yl)phenyl)pyrrolidine-3-carbonyl)piperazin-1-yl)methyl)cyclohexyl)-6-methoxy-2H-indazol-5-yl)-2-oxo-1,2-dihydropyridine-3-carboxamide], for which the IC50 in assay [1] worked out at 77 nM; in assay [2] it was 18 nM. Also, the Emax in assay [1] is 72%; in assay [2] it was 85%. Also, the Dmax on IRAK4 [3] (setting [5]) came out at 81%; at IRAK4 [3] (setting [7]) it was 95%. Further, the DC50 stood at 18 nM at IRAK4 [3] (setting [6]) and 3.6 nM at IRAK4 [3] (setting [8]).

As for `[2H]C([2H])([2H])Oc1cc2nn([C@H]3CC[C@H](N4CCN(C(=O)C5CN(c6cc(F)c([C@H]7CCC(=O)NC7=O)c(F)c6)C5)CC4)CC3)cc2cc1NC(=O)c1cccc(C(F)(F)F)n1` [Example 165, N-(2-((1r,4r)-4-(4-(1-(4-((R)-2,6-dioxopiperidin-3-yl)-3,5-difluorophenyl)azetidine-3-carbonyl)piperazin-1-yl)cyclohexyl)-6-(methoxy-d3)-2H-indazol-5-yl)-6-(trifluoromethyl)picolinamide], the 50% inhibitory concentration (IC50) in assay [1] came to 73 nM; in assay [2], 7.9 nM. Further, the Emax in assay [1] was 82%; in assay [2] it was 91%. Also, the Dmax on IRAK4 [3] (setting [5]) came out at 97%; on IRAK4 [3] (setting [7]), 98%. In addition, the 50% degradation concentration (DC50) on IRAK4 [3] (setting [6]) was determined as 13 nM; on IRAK4 [3] (setting [8]) it was 0.7 nM.
